Assays:
HL-60 [1] = assay: Cytotoxicity in human HL60 cells assessed as cell viability at 20 uM incubated for 48 hrs by MTT assay; assay type: functional; conditions: HL-60, 48 h, read-out: Activity
HL-60 [2] = assay: Cytotoxicity in human HL60 cells assessed as reduction in cell viability incubated for 72 hrs by MTT assay; assay type: functional, cell-based; conditions: HL-60, 72 h
HL-60 [3] = assay: Cytotoxicity in human HL60 cells assessed as reduction in cell viability incubated for 48 hrs by MTT assay; assay type: functional, cell-based; conditions: HL-60, 48 h

CCNC1=CC(=O)c2c(O)ccc(O)c2C1=O
viability at 20 µM (HL-60 [1]): 56.4%

O=C1C=C(NCCO)C(=O)c2c(O)ccc(O)c21
viability at 20 µM (HL-60 [1]): 50.3%

O=C1C=C(N2CCCC2)C(=O)c2c(O)ccc(O)c21
viability at 20 µM (HL-60 [1]): 97.2%

O=C1C=CC(=O)c2c(O)ccc(O)c21 [NAPHTHAZALIN]
viability at 20 µM (HL-60 [1]): 0%
IC50 (HL-60 [2]): 800 nM
IC50 (HL-60 [3]): 930 nM

O=C1C=C(Nc2ccccc2)C(=O)c2c(O)ccc(O)c21
viability at 20 µM (HL-60 [1]): 59.7%

O=C1C=CC(=O)c2c(Cl)ccc(O)c21
viability at 20 µM (HL-60 [1]): 23.1%

CCC(C)NC1=CC(=O)c2c(O)ccc(O)c2C1=O (stereo not given)
viability at 20 µM (HL-60 [1]): 57%

CC(C)CCNC1=CC(=O)c2c(O)ccc(O)c2C1=O
viability at 20 µM (HL-60 [1]): 54.3%

— ChEMBL document CHEMBL4130472, “Synthesis of naphthazarin derivatives and identification of novel thioredoxin reductase inhibitor as potential anticancer agent” (Eur J Med Chem, 2017)
